In the NIST ThermoML archive (doi:10.1016/j.fluid.2018.10.006):
Where “and” joins values, the source holds several entries; their conditions need not be identical. Identical values can stand only once.

Settings: Fluid (supercritical or subcritical phases), Coaxial cylinder method

CCCCCC [hexane]
thermal conductivity
Settings	508.17 K	508.92 K
900 kPa	–	0.03769 W/m/K
1100 kPa	–	0.03855 W/m/K
1234 kPa	–	0.03889 W/m/K
1401 kPa	–	0.03933 W/m/K
1510 kPa	–	0.03959 W/m/K
1603 kPa	–	0.03996 W/m/K
1710 kPa	–	0.04032 W/m/K
1806 kPa	–	0.0407 W/m/K
1908 kPa	–	0.04118 W/m/K
2006 kPa	–	0.04167 W/m/K
2111 kPa	–	0.04248 W/m/K
2210 kPa	–	0.043 W/m/K
2300 kPa	–	0.04353 W/m/K
2409 kPa	–	0.04463 W/m/K
2509 kPa	–	0.04579 W/m/K
2600 kPa	–	0.04701 W/m/K
2650 kPa	–	0.04777 W/m/K
2726 kPa	–	0.0491 W/m/K
2744 kPa	–	0.04937 W/m/K
2752 kPa	–	0.04965 W/m/K
2763 kPa	–	0.04993 W/m/K
2847 kPa	–	0.05261 W/m/K
2898 kPa	–	0.05429 W/m/K
2902 kPa	–	0.05464 W/m/K
2927 kPa	–	0.05568 W/m/K
2949 kPa	0.0646 W/m/K	–
2953 kPa	0.06509 W/m/K	–
2955 kPa	–	0.05752 W/m/K
2956 kPa	0.06509 W/m/K	–
2963 kPa	0.06603 W/m/K	–
2966 kPa	0.06628 W/m/K	–
2968 kPa	–	0.05888 W/m/K
2970 kPa	0.06681 W/m/K	–
2974 kPa	0.06734 W/m/K	–
2975 kPa	–	0.05948 W/m/K
2979 kPa	0.06826 W/m/K	–
2982 kPa	0.0687 W/m/K	–
2985 kPa	–	0.06031 W/m/K
2988 kPa	–	0.06094 W/m/K
2990 kPa	0.07041 W/m/K	–
2991 kPa	0.0707 W/m/K	–
2992 kPa	–	0.06115 W/m/K
2995 kPa	0.07129 W/m/K	–
2998 kPa	0.07219 W/m/K	–
2999 kPa	–	0.06202 W/m/K
3002 kPa	0.07324 W/m/K	–
3004 kPa	–	0.06246 W/m/K
3007 kPa	0.07436 W/m/K	–
3009 kPa	0.07488 W/m/K	–
3011 kPa	–	0.06336 W/m/K
3013 kPa	0.0758 W/m/K	–
3015 kPa	0.07648 W/m/K	0.06429 W/m/K
3017 kPa	0.07703 W/m/K	–
3019 kPa	–	0.06477 W/m/K
3021 kPa	0.07822 W/m/K	–
3022 kPa	0.07848 W/m/K	–
3024 kPa	0.0792 W/m/K	–
3025 kPa	–	0.06574 W/m/K
3026 kPa	0.07994 W/m/K	–
3028 kPa	–	0.06624 W/m/K
3029 kPa	0.08069 W/m/K	–
3031 kPa	0.08185 W/m/K	–
3033 kPa	0.08287 W/m/K	0.06751 W/m/K
3034 kPa	0.08344 W/m/K	–
3035 kPa	–	0.06804 W/m/K
3036 kPa	0.08467 W/m/K	–
3037 kPa	0.08467 W/m/K	–
3038 kPa	0.08604 W/m/K	–
3039 kPa	0.08566 W/m/K	0.06857 W/m/K
3040 kPa	0.08735 W/m/K	–
3041 kPa	0.08647 W/m/K and 0.08824 W/m/K	–
3042 kPa	0.09103 W/m/K	0.06938 W/m/K
3043 kPa	0.09201 W/m/K	–
3044 kPa	–	0.06994 W/m/K
3045 kPa	0.09401 W/m/K	–
3046 kPa	0.09504 W/m/K	–
3047 kPa	0.0961 W/m/K	–
3048 kPa	0.09828 W/m/K	0.07107 W/m/K
3049 kPa	0.09941 W/m/K	–
3050 kPa	0.1017 W/m/K	0.0715 W/m/K
3051 kPa	0.1048 W/m/K	–
3052 kPa	0.1081 W/m/K	0.07223 W/m/K
3053 kPa	0.1119 W/m/K	–
3054 kPa	0.1168 W/m/K	–
3055 kPa	0.1226 W/m/K	0.07344 W/m/K
3056 kPa	0.1319 W/m/K	0.07375 W/m/K
3057 kPa	0.1487 W/m/K	–
3058 kPa	0.1625 W/m/K	–
3059 kPa	0.1438 W/m/K	0.07469 W/m/K
3060 kPa	0.1319 W/m/K	0.07532 W/m/K
3061 kPa	0.1231 W/m/K	–
3062 kPa	0.1168 W/m/K	–
3063 kPa	0.1123 W/m/K	0.0763 W/m/K
3064 kPa	0.1088 W/m/K	–
3065 kPa	0.106 W/m/K	0.07747 W/m/K
3066 kPa	0.1039 W/m/K	–
3067 kPa	0.1024 W/m/K	0.07868 W/m/K
3068 kPa	0.1006 W/m/K	0.07903 W/m/K
3069 kPa	0.09945 W/m/K	0.0801 W/m/K
3070 kPa	0.09832 W/m/K	0.08047 W/m/K
3071 kPa	0.09743 W/m/K	0.08084 W/m/K
3073 kPa	0.09613 W/m/K	0.08254 W/m/K
3074 kPa	0.09508 W/m/K	0.08353 W/m/K
3075 kPa	0.09456 W/m/K	0.08412 W/m/K
3076 kPa	0.09404 W/m/K	0.08532 W/m/K
3077 kPa	0.09323 W/m/K	0.08593 W/m/K
3078 kPa	0.09287 W/m/K	0.08697 W/m/K
3079 kPa	0.09237 W/m/K	0.08803 W/m/K
3080 kPa	0.09171 W/m/K	0.08934 W/m/K
3081 kPa	0.09127 W/m/K	0.09069 W/m/K
3082 kPa	0.09079 W/m/K	0.09234 W/m/K
3083 kPa	0.09032 W/m/K	0.09384 W/m/K
3084 kPa	0.08985 W/m/K	0.09568 W/m/K
3085 kPa	0.08955 W/m/K	0.0977 W/m/K
3086 kPa	0.0889 W/m/K	0.1001 W/m/K
3087 kPa	0.08845 W/m/K	0.103 W/m/K
3088 kPa	0.088 W/m/K	–
3089 kPa	0.08755 W/m/K	–
3090 kPa	0.08755 W/m/K	–
3091 kPa	0.08711 W/m/K	–
3092 kPa	0.08667 W/m/K	–
3094 kPa	0.08581 W/m/K	–
3095 kPa	0.08539 W/m/K	–
3100 kPa	0.08334 W/m/K	–
3105 kPa	0.08267 W/m/K	–
3108 kPa	0.08217 W/m/K	–
3115 kPa	0.08124 W/m/K	–
3120 kPa	0.08025 W/m/K	–
3125 kPa	0.08032 W/m/K	–
3130 kPa	0.08032 W/m/K	–
3132 kPa	0.08032 W/m/K	–
